Source: patent US11965038B2, “Pharmaceutical composition comprising antibody binding specifically to lysyl-tRNA synthetase N-terminus as effective ingredient for preventing or treating immune cell migration-related disease” (Zymedi Co., Ltd., priority 2017, dated 2024)

Legend:
[1] = system: migration and invasion of immune cells; settings: ear skin wound models, liver ischemia-reperfusion injury models; from Korean applications 10-2017-0076718 and 10-2018-0069146; cited from earlier work
[2] = system: pulmonary arterial hypertension (PAH) models; assay: Echocardiography in MCT-induced PAH model; assay type: in vivo, SD rats; settings: PAH rats, MCT alone: three animals
Text: (§1) To induce PAH in 7-week-old SD rats (Oriental Bio), 60 mpk of MCT (monocrotaline) were subcutaneously injected.

[3] = Body weight change in MCT-induced PAH model; assay type: in vivo, SD rats; settings: sildenafil 25 mpk, n = 5
Text: as §1

[4] = system: RAW 264.7 cells; assay: Transwell migration assay with extracellular matrix proteins and laminin subtypes; assay type: cell-based
Procedure: In the extracellular matrix (ECM) that make up the blood vessels, it was identified which promotes the migration and invasion of monocytes/macrophages. Transwell migration assay was performed using collagen (collagen, Col), fibronectin (FN) and laminin (LN) as extracellular matrix. The specific experimental method is as follows. After transwells (Corning, #3421-5 mm) were coated with gelatin (0.5 mg/ml), RAW 264.7 cells (1×10^5 cells/well) were seeded into the top chamber. Fibronectin or Collagen was placed in the bottom chamber. Serum Free DMEM (500 μl) containing 10 μg/ml of Laminin (laminin mixture, Biolamina), Fibronectin or Collagen, respectively, was placed in the bottom chamber. After 24 hours, the cells were treated with 70% methanol for 30 minutes and fixed, and then stained with 50% Hematoxylin for 30 minutes. After removing non-migrating cells from the top of the membrane with a cotton swab, the membrane was taken and mounted on the slide. The migrating cells on the underside of the membrane were observed and quantified under a high magnification microscope.
The effects of laminin subtypes on immune cell migration and invasion were evaluated. A transwell cell migration assay was performed in the same manner as in the Example 1 using LN111, LN211, LN221, LN411, LN421, LN511, and LN521 at 1 μg/ml as various laminin subtype proteins (purchased from Biolamina). […]

[5] = system: KRS; assay: Western blotting of KRS in cytosol and membrane fractions after LN421 treatment; assay type: cell-based; settings: 1 μg/ml LN421, 0 h, 12 h, 24 h
Procedure: After seeding RAW 264.7 cells (2×10^6 cells) in 100 pie plate and incubating for 18 hr, the serum free-DMEM media was treated with 1 μg/ml LN421 and the cells were harvested at 0 h, 12 h, and 24 h. RAW 264.7 cell proteins were separated into cytosol and membrane fractions using the ProteoExtract® Subcellular Proteome Extraction Kit (Calbiotech, cat #539790). The obtained protein was subjected to electrophoresis, transferred to PVDF membrane (Millipore) and blocked with 3% skim milk. KRS was then detected by the western blotting. Specifically, KRS polyclonal antibody (rabbit, Neomics, Co. Ltd. #NMS-01-0005) was added to bind for 1 hour. Unbound antibody was removed and then anti-rabbit secondary antibody (Thermo Fisher Scientific, #31460) was added. After reacting with the secondary antibody, the film was developed in the dark room using ECL reagent as a substrate. The detected bands were compared to standard molecular markers to identify the bands corresponding to the size of the KRS. Antibodies against Na+/K+ATPase (Abcam, ab76020) and tubulin (Santa cruz SC-5286) were used to identify plasma membrane and cytosol markers, respectively.

COc1ccc(CCN(Cc2ccc(C(=O)O)cc2)c2nc3cccc(F)c3s2)cc1 [BC-KI-00053, 4-({(7-fluorobenzo [d]thiazol-2-yl) [2-(4-methoxyphenyl)ethyl]amino}methyl) benzoic acid]
migration and invasion of immune cells [1]: inhibited

CCCc1nn(C)c2c(=O)[nH]c(-c3cc(S(=O)(=O)N4CCN(C)CC4)ccc3OCC)nc12 [Sildenafil, sildenafil]
D-shaped left ventricle finding indicating pressure overload in the right ventricle [2]: three animals | Relative change (weight) ([3]; MCT + Mock IgG 48.8 ± 7.8): 49.8 ± 10.5% | Absolute change (weight) ([3]; MCT + Mock IgG 101.4 ± 14.2): 104.1 ± 26.4 g

LN421: laminin subtype α4β2γ1, purchased from Biolamina
migration of monocytes/macrophages by laminin subtype ([4]; laminin subtypes at 1 μg/ml): specifically move in response | amount of KRS detected in the cell membrane region [5]: increased

laminin
migration of monocytes/macrophages ([4]; collagen, fibronectin or laminin mixture 10 μg/ml in bottom chamber, 24 hours): most strongly promotes
